Where two headings read alike, the source gives them in different places.
Legend:
rats [1] = test: Rotarod/ataxia test in rats; settings: p.o., rotating rod 10 rpm
Description: (§1) Neurological deficits were evaluated by the inability of the rats to remain on the rotating rod (10 rpm) for the test period.

rats [2] = test: Irwin test in rats; type: in vivo, Sprague Dawley rats
Description: To verify if the administration of the compound may induce centrally mediated side effects, adult male Sprague Dawley rats (150-200 g, supplier Harlan) were treated with dimiracetam by subcutaneous and oral routes and monitored according to the “Irwin test” protocol (Irwin 1968, Psychopharmacologia 13:222-257), a systematic and quantitative procedure for assessing the behavioral and physiological modifications induced in animals by the drug treatment.
Rats were constantly monitored for 30 min after administration. Monitoring was iterated every morning at 9 a.m. for 4 days after administration.

mice = test: Hole board test in mice; type: in vivo, Swiss Webster mice; settings: 30 min after oral administration
Source text: The hole board test allows to study the behavior of rodents when confronted with a new environment (Boissier J R 1964, Therapie 19:571-583). The test enables to evaluate the initial exploratory activity of the animal and its possible variations induced by drug administration.
The hole board test uses a 40 cm square plane with 16 flush-mounted cylindrical holes (diameter 3 cm) distributed 4 by 4 in an equidistant, grid-like manner. Mice (male Swiss Webster mice weighing 25-30 g, supplier Morini) are placed one by one in the center of the board and allowed to move freely, each for a period of 5 min. Two photoelectric beams, crossing the plane from mid-point to mid-point of opposite sides, and thus dividing the plane into four equal quadrants, automatically record the movements of the animals on the plane surface. Miniature photoelectric cells in each of the 16 holes record the exploration of the holes (head plunging activity) by the mice.

Sprague Dawley rats [3] = settings: rat, in vivo, po, 2500 mg/kg/day
ddC-induced neuropathy [4] = test: ddC-induced (antiviral-induced) neuropathy, von Frey test; type: in vivo, Sprague Dawley rats; settings: 100 mg/kg
Description: (§2) Adult male Sprague Dawley rats (150-200 g, supplier Harlan) were treated by intravenous route with a single administration of 25 mg/kg of nucleoside reverse transcriptase inhibitors ddC (2′,3′-dideoxycytidine) or d4T (2′,3′-didehydro-3′-deoxythymidine). Administration of these anti-HIV drugs induced a marked allodynic response to a mechanical stimulus (Joseph E. K. 2004, Pain 107:147-158). The maximum reduction of the paw pressure threshold is developed between day 5 and day 10 after injection. The test was performed on day 10.
Rats (male adult Sprague Dawley rats, 150-200 g, supplier Harlan) were placed in a chamber with a mesh metal floor covered by a plastic dome that enabled the animals to walk freely, but not to jump. The mechanical stimulus was delivered in the mid-plantar skin of left hind paw using an electronic von Frey apparatus. The cut-off was fixed at 50 g, while the increasing force rate (ramp duration) was settled at 20 sec.

rats motor coordination = test: Motor coordination in rats (rotarod); type: in vivo, Sprague Dawley rats
Description: The rotarod test allows the evaluation of the effects of a compound on motor coordination. Adult male Sprague Dawley rats (200-220 g, supplier Harlan, Milan) were placed on a plastic rod 6 cm in diameter and 35 cm in length, rotating at constant speed (16 rpm) at a height of 25 cm. The rod is divided in 4 equal sections, thus up to 4 animals may be tested simultaneously. The animals were required to walk against the motion of the rotating drum over 30 seconds. The time taken to fall off the rotarod was recorded as number of falls in 30 seconds, following the method of Vaught et al. 1985, Neuropharmacology 24:211-216. In each experiment motor coordination is measured before (pre-test) and after administration of the tested compound. Rats scoring less than 3 and more than 6 falls in the pretest are rejected.

[5] = system: MIA-induced osteoarthritic pain; test: MIA-induced osteoarthritic pain in rats, paw pressure test; type: in vivo, Sprague Dawley rats
Description: Osteoarthritis was induced by a single administration of 2 mg (in a volume of 25 μl) of sodium 2-iodoacetate into the left knee joint of anaesthetized rats (male adult Sprague Dawley rats, 150-200 g, supplier Harlan) (Fernihough J. 2004, Pain 112:83-93). This treatment induces the progressive degeneration of the joint and the development of hyperalgesia, mimicking at the histological and behavioral levels what observed in humans. Pharmacological test was performed 7 days after treatment.
(§3) Mechanical hyperalgesia in rats (male adult Sprague Dawley rats, 150-200 g, supplier Harlan) was determined using the paw pressure test. The nociceptive threshold was determined with an analgesimeter (Ugo Basile, Italy), exerting a force that increases at constant rate (32 g/s) according to the method described by Leighton G. E. 1988, Br. J. Pharmacol. 93:553-560. The stimulus causing paw withdrawal was evaluated before and at different times after treatment. Results represent the mean of mechanical thresholds expressed as grams. To avoid any possible damage to the animal paw the maximum applied force was fixed at 240 g.

Cynomolgus monkeys = settings: cynomolgus monkey, in vivo, po, 2000 mg/kg/day
Sprague Dawley rats [6] = settings: rat, in vivo, 3000 mg/kg
[7] = oral doses greater than 10 mg/kg (J. Med. Chem., 1993, 36:4214-4220); cited from earlier work
[8] = system: oxaliplatin-induced neuropathy; test: Oxaliplatin-induced neuropathy in rats, paw pressure test; type: in vivo, Sprague-Dawley rats; settings: 300 mg/kg p.o. once a day
Description: Paw pressure test was performed 4 days after the last injection (Marchand F. et al. 2003, Brain Res. 980:117-120). • Taxol: taxol neuropathy was induced by intraperitoneal administration of 0.5 mg/kg once a day, on days 1, 3, 5 and 8. […] The pharmacological test was performed 14-18 days after the last taxol injection (Polomano R. C. et al. 2001, Pain 94:293-304). • Oxaliplatin: 2.4 mg/kg were injected by intraperitoneal route for 5 consecutive days followed by 2 days suspension (one cycle). A total of 3 cycles was performed, reaching a cumulative dose of 36 mg/kg (Cavaletti G. 2001, Eur. J. Cancer 37:2457-2463). The test was performed 48 h after the last oxaliplatin injection. 1.2 Antiviral-Induced Neuropathy […] The nociceptive threshold was determined with an analgesimeter (Ugo Basile, Italy), exerting a force that increases at constant rate (32 g/s) according to the method described by Leighton G. E. 1988, Br. J. Pharmacol. 93:553-560. The stimulus causing paw withdrawal was evaluated before and at different times after treatment. Results represent the mean of mechanical thresholds expressed as grams. To avoid any possible damage to the animal paw the maximum applied force was fixed at 240 g. The effect of […] evaluated in the oxaliplatin-induced neuropathy model after repeated administration with the paw pressure test.

ddC-induced neuropathy [9] = test: ddC-induced neuropathy, paw pressure test; type: in vivo, Sprague Dawley rats; settings: 300 mg/kg orally
Description: as §2
as §3, with “To avoid any possible damage to the animal paw the maximum applied force was fixed at 240 g.” left out
Dimiracetam is a racemic compound; the two corresponding enantiomers were synthesized and separately tested in the ddC-induced neuropathy model. The two compounds were administered orally at doses of 150 and 300 mg/kg and their antihyperalgesic activity was evaluated with the paw pressure test.

[10] = Rotarod/ataxia test in rats; settings: rat, in vivo, po
Description: as §1

[11] = 150 mg/kg, 15-30 min after administration

Question: Which “TD25 (dose causing 25% of fallen rats)” value (rats [1]) does the source give for `O=C1CN2C(=O)CCC2N1` (racemic) [dimiracetam, 2,5-dioxohexahydro-1H-pyrrolo[1,2-a]imidazole] here?
Answer: The value was 6000 mg/kg.

Question: And the “effects on behavioral parameters (Irwin test)” value (rats [2]; 1000 mg/kg by subcutaneous route)?
Answer: The value was “did not show any effects”.

Question: And the “effects on behavioral parameters (Irwin test)” value (rats [2]; 3000 mg/kg p.o.)?
Answer: Its value is “did not show any effects”.

Question: What about the “curiosity (number of head plungings)” value (mice; 3000 mg/kg p.o.) of the same molecule?
Answer: Its value is “does not significantly reduce”.

Question: And the “spontaneous activity (number of movements of each animal on the plane)” value (mice; 3000 mg/kg p.o.)?
Answer: Its value is “does not significantly reduce”.

Question: And the “mortality, symptomatology, normal behavior, repeated dose” value (Sprague Dawley rats [3])?
Answer: The value was “did not produce any changes”.

Question: And the “tolerability, repeated dose” value (Sprague Dawley rats [3])?
Answer: The value was “well tolerated”.

Question: What about the “ddC-induced allodynia (von Frey mechanical threshold)” value (ddC-induced neuropathy [4]; 15-30 min after administration) of the same molecule?
Answer: The value was “fully reverted ddC-induced allodynia”.

Question: And the “ddC-induced allodynia (von Frey mechanical threshold)” value (ddC-induced neuropathy [4]; 45 min after treatment)?
Answer: Its value is “still statistically significant”.

Question: What about the “motor coordination (number of falls in 30 sec, rotarod)” value (rats motor coordination; 3000 mg/kg p.o., acute) of the same molecule?
Answer: The value was “does not alter rats motor coordination”.

Question: What about the “reversal of MIA-induced hyperalgesia (paw pressure test)” value (from here on “reversal of MIA-induced hyperalgesia”) [5, 11] of the same molecule?
Answer: The value was “statistically significant effect”.

Question: What about the “reversal of MIA-induced hyperalgesia” value ([5]; 300 mg/kg, 60 min after administration) of the same molecule?
Answer: The value was “still statistically significant”.

Question: And the “reversal of MIA-induced hyperalgesia” value ([5]; 300 mg/kg, between 15 and 45 min after administration)?
Answer: The value was “fully reverted MIA-induced hyperalgesia”.

Question: And the “tolerability, repeated dose” value (Cynomolgus monkeys)?
Answer: The value was “well tolerated”.

Question: What about the “tolerability / signs of toxicity, single dose” value (Sprague Dawley rats [6]; iv) of the same molecule?
Answer: Its value is “substantially well tolerated”.

Question: What about the “tolerability / signs of toxicity, single dose” value (Sprague Dawley rats [6]; po) of the same molecule?
Answer: The value was “substantially well tolerated”.

Question: And the “nootropic activity, dose-response” value [7]?
Answer: Its value is “tends to lower”.

Question: And the “time after administration at which effect was statistically significant” value [8]?
Answer: The value was “between 30 min and 4 h”.

Question: And the “mechanical hyperalgesia (paw pressure test)” value ([8]; starting three days before oxaliplatin treatment and during it)?
Answer: The value was “significantly reduced mechanical hyperalgesia”.

Question: Which “reversal of MIA-induced hyperalgesia” value [5, 11] does the source give for `O=C1CN2C(=O)CC[C@@H]2N1` [(R)-dimiracetam] here?
Answer: Its value is “statistically significant effect”.

Question: And the “reversal of MIA-induced hyperalgesia” value ([5]; 45 min after treatment, dose not restated)?
Answer: Its value is “still statistically significant”.

Question: What about the “antihyperalgesic activity (paw pressure mechanical threshold)” value (ddC-induced neuropathy [9]; 15-45 min after administration) of the same molecule?
Answer: The value was “significant reduction of the pain mechanical threshold”.

Question: With `O=C1CN2C(=O)CC[C@H]2N1` (single isomer, unassigned) [(S) enantiomer] as the molecule, how does the “antihyperalgesic activity (paw pressure mechanical threshold)” value (ddC-induced neuropathy [9]; 15 min after administration) read?
Answer: Its value is “significant effect”.

Question: For `N#Cc1cccc(N2C(=O)CN3C(=O)CCC32)c1` (stereo not shown) [I-(3-cyanophenyl)-tetrahydropyrrolo[1,2-a]imidazole-2,5-dione], which “dose from which the number of falls is increased (rotarod)” value (rats motor coordination; rat, in vivo) is on record?
Answer: Its value is 300 mg/kg.

Question: What about the “motor coordination (number of falls in 30 sec, rotarod)” value (rats motor coordination; starting from the dose of 300 mg/kg) of the same molecule?
Answer: Its value is “significantly altered animals motor coordination”.

Question: With `CC[C@@H](C(N)=O)N1CCCC1=O` [levetiracetam] as the molecule, how does the TD50 [10] read?
Answer: Its TD50 is 2000 mg/kg.

Question: For `COc1cccc(C2(O)CCCCC2CN(C)C)c1` (stereo not shown) [tramadol], which TD50 [10] is on record?
Answer: Its TD50 is 253 mg/kg.

Question: What does the source list for `NCC1(CC(=O)O)CCCCC1` [Gabapentin, gabapentin, reference compound]?
Answer: TD16 (dose causing 16% of fallen rats) (rats [1]): 1000 mg/kg; curiosity (number of head plungings) (mice; 1000 mg/kg): statistically significant reduction; spontaneous activity (number of movements of each animal on the plane) (mice; 1000 mg/kg): statistically significant reduction

Question: Which TD50 [10] does the source give for `CC(C)C[C@H](CN)CC(=O)O` [pregabalin] here?
Answer: Its TD50 is 536 mg/kg.
